Measurements: patent US8859768B2, “Heteroaryls and uses thereof” (Millennium Pharmaceuticals, Inc., priority 2010, dated 2014)

Target: T1, Human VPS34 (Homo sapiens, UniProt Q8NEB9)
T1 construct: GST (N); host or cells: SF9 insect cells (baculovirus)
Experiment: Human VPS34 Enzyme Assay (Adapta TR-FRET)
Assay type: biochemical
Conditions: compound at 1.111 μM; read-out: Average VPS34 % INH @ 1.111 μM
Experimental: VPS34 (accession number GB:BC033004) was cloned into pDEST20-Thombin as N-terminal GST tagged fusion proteins using the Gateway system (Invitrogen, catalog#11804-013). The sequences were verified before recombinant protein expression using the Baculovirus Expression System with Gateway® Technology.
For expression VPS34 was infected at 1MOI in SF9 cells and harvested 72 hours post infection.
For purification, VPS34 is purified by Glutathione Sepharose 4 Fast Flow (GE Healthcare #17-5132-03) followed by HiTrap Q (GE Healthcare #17-1153-01).
Human VPS34 Enzyme Assay Method
100 nL compounds in DMSO are added to wells of a 384 well microtitre plate (Greiner 780076). At room temperature: 5 ul VPS34 reaction buffer (Invitrogen Assay Buffer Q (diluted 1 in 5 with nanopure water) plus 2 mM DTT and 2 mM MnCl2) containing ATP (20 uM, Promega) and 200 uM PI-PS substrate (Invitrogen PV5122) is added followed immediately by 5 ul VPS34 reaction buffer (as above) containing VPS34 (5 nM, Millennium Protein Sciences Group) and the mixture is incubated with shaking at room temperature for 1 hour. Then 5 ul VPS34 stop-detect mix (as per Invitrogen Adapta Assay kit (PV5009) instructions (contains kinase quench buffer, TR-FRET buffer, Adapta Eu anti-ADP antibody and Alexa Fluor 647 ADP tracer)) is added to quench the reaction. The plates are then incubated for 30 minutes at room temperature with shaking and then read on a BMG PheraStar Plus reader.
3) VPS34 is assayed using Adapta™ Universal Kinase Assay Kit (Invitrogen).

T1 sequence (Q8NEB9 whole entry): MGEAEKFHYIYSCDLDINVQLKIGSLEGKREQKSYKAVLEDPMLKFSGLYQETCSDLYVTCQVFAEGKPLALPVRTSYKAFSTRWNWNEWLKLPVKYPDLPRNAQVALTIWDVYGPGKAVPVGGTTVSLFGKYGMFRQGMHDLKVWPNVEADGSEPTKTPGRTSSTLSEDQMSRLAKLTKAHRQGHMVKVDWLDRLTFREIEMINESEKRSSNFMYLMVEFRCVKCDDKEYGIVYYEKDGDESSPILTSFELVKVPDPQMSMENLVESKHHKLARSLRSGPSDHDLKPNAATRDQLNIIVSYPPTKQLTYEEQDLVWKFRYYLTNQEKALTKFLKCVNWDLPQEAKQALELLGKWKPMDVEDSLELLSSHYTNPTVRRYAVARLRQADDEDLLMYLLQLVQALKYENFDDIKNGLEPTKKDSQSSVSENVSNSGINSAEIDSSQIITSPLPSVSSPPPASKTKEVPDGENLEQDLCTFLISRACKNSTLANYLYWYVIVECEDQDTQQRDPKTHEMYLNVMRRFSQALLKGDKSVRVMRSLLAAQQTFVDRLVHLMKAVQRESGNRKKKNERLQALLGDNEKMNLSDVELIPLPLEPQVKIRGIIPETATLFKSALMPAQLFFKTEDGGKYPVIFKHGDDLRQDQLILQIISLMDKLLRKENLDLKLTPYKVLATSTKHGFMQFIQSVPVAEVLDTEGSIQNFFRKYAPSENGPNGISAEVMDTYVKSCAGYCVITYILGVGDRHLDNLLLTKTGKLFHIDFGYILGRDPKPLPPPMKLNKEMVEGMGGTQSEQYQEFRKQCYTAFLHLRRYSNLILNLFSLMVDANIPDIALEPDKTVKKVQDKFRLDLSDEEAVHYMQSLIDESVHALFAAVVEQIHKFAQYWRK

Row | inhibition at 1.111 µM [%] | SMILES
1 | 135 | CC(=O)Nc1cc(-c2nc(-c3ccccc3Cl)c(-c3cc[nH]n3)o2)c(C)cn1 [Compound I-57, N-{4-[4-(2-chlorophenyl)-5-(1H-pyrazol-3-yl)-1,3-oxazol-2-yl]-5-methylpyridin-2-yl}acetamide]
2 | 94 | O=C(Cc1ccc(O)cc1)Nc1cc(-c2nc(-c3nnc[nH]3)c(-c3ccccc3Cl)o2)ccn1 [Compound I-58, N-{4-[5-(2-chlorophenyl)-4-(4H-1,2,4-triazol-3-yl)-1,3-oxazol-2-yl]pyridin-2-yl}-2-(4-hydroxyphenyl)acetamide]
3 | 101 | CCNC(=O)c1nc(-c2cc(NC(C)=O)ncc2C)oc1-c1ccccc1Cl [Compound I-59, 2-(2-acetamido-5-methylpyridin-4-yl)-5-(2-chlorophenyl)-N-ethyl-1,3-oxazole-4-carboxamide]
4 | 122 | CC(=O)Nc1cc(-c2nc(-c3nccs3)c(-c3ccccc3Cl)o2)c(C)cn1 [Compound I-60, N-{4-[5-(2-chlorophenyl)-4-(1,3-thiazol-2-yl)-1,3-oxazol-2-yl]-5-methylpyridin-2-yl}acetamide]
5 | 96 | CC(=O)Nc1cc(-c2cc(C(=O)N(C)C)c(-c3ccccc3Cl)o2)c(C)cn1 [Compound I-61, 5-(2-acetamido-5-methylpyridin-4-yl)-2-(2-chlorophenyl)-N,N-dimethyl-3-furamide]
6 | 14 | CC(=O)Nc1cc(-c2nc(C(=O)NCCCn3ccnc3)c(-c3ccccc3Cl)o2)c(C)cn1 [Compound I-63, 2-(2-acetamido-5-methylpyridin-4-yl)-5-(2-chlorophenyl)-N-[3-(1H-imidazol-1-yl)propyl]-1,3-oxazole-4-carboxamide]
7 | 64 | COCCNC(=O)c1nc(-c2cc(NC(C)=O)ncc2C)oc1-c1ccccc1Cl [Compound I-64, 2-(2-acetamido-5-methylpyridin-4-yl)-5-(2-chlorophenyl)-N-(2-methoxyethyl)-1,3-oxazole-4-carboxamide]
8 | 21 | CC(C)CC(=O)Nc1cc(-c2nc(-c3nnc[nH]3)c(-c3ccccc3Cl)o2)ccn1 [Compound I-65, N-{4-[5-(2-chlorophenyl)-4-(4H-1,2,4-triazol-3-yl)-1,3-oxazol-2-yl]pyridin-2-yl}-3-methylbutanamide]
9 | 39 | O=C(Cc1ccccc1)Nc1cc(-c2nc(-c3nnc[nH]3)c(-c3ccccc3Cl)o2)ccn1 [Compound I-67, N-{4-[5-(2-chlorophenyl)-4-(4H-1,2,4-triazol-3-yl)-1,3-oxazol-2-yl]pyridin-2-yl}-2-phenylacetamide]
10 | 104 | CC(=O)Nc1cc(-c2cc(C(=O)NCc3cccnc3)c(-c3ccccc3Cl)o2)c(C)cn1 [Compound I-68, 5-(2-acetamido-5-methylpyridin-4-yl)-2-(2-chlorophenyl)-N-(pyridin-3-ylmethyl)-3-furamide]
11 | 144 | CC(=O)Nc1cc(-c2cc(-c3ncco3)c(-c3ccccc3Cl)o2)c(C)cn1 [Compound I-69, N-{4-[5-(2-chlorophenyl)-4-(1,3-oxazol-2-yl)-2-furyl]-5-methylpyridin-2-yl}acetamide]
12 | 45 | CC(=O)Nc1cc(-c2nc(C(=O)NCCn3ccnc3)c(-c3ccccc3Cl)o2)c(C)cn1 [Compound I-70, 2-(2-acetamido-5-methylpyridin-4-yl)-5-(2-chlorophenyl)-N-[2-(1H-imidazol-1-yl)ethyl]-1,3-oxazole-4-carboxamide]
13 | 87 | Clc1ccccc1-c1oc(-c2ccnc3[nH]ccc23)nc1-c1nnc[nH]1 [Compound I-71, 4-[5-(2-chlorophenyl)-4-(4H-1,2,4-triazol-3-yl)-1,3-oxazol-2-yl]-1H-pyrrolo[2,3-b]pyridine]
14 | 78 | CC(=O)Nc1cc(-c2cc(C(=O)NC(C)C)c(-c3ccccc3Cl)o2)c(C)cn1 [Compound I-72, 5-(2-acetamido-5-methylpyridin-4-yl)-2-(2-chlorophenyl)-N-isopropyl-3-furamide]
15 | 115 | CC(=O)Nc1cc(-c2nc(C(=O)N(C)C)c(-c3ccccc3Cl)o2)c(C)cn1 [Compound I-73, 2-(2-acetamido-5-methylpyridin-4-yl)-5-(2-chlorophenyl)-N,N-dimethyl-1,3-oxazole-4-carboxamide]
16 | 28 | CC(=O)Nc1cc(-c2nc(C(=O)NC3CCC3)c(-c3ccccc3Cl)o2)c(C)cn1 [Compound I-74, 2-(2-acetamido-5-methylpyridin-4-yl)-5-(2-chlorophenyl)-N-cyclobutyl-1,3-oxazole-4-carboxamide]
17 | 114 | CCC(=O)Nc1cc(-c2nc(-c3nnc[nH]3)c(-c3ccccc3Cl)o2)ccn1 [Compound I-75, N-{4-[5-(2-chlorophenyl)-4-(4H-1,2,4-triazol-3-yl)-1,3-oxazol-2-yl]pyridin-2-yl}propanamide]
18 | 79 | CCCC(=O)Nc1cc(-c2nc(-c3nnc[nH]3)c(-c3ccccc3Cl)o2)ccn1 [Compound I-76, N-{4-[5-(2-chlorophenyl)-4-(4H-1,2,4-triazol-3-yl)-1,3-oxazol-2-yl]pyridin-2-yl}butanamide]
19 | 120 | Cc1cnc(NC(=O)C2CC2)cc1-c1nc(-c2nnc[nH]2)c(-c2ccccc2Cl)o1 [Compound I-77, N-{4-[5-(2-chlorophenyl)-4-(4H-1,2,4-triazol-3-yl)-1,3-oxazol-2-yl]-5-methylpyridin-2-yl}cyclopropanecarboxamide]
20 | 43 | CC(=O)Nc1cc(-c2nc(-c3ccccc3Cl)c(-c3ccccn3)o2)c(C)cn1 [Compound I-78, N-{4-[4-(2-chlorophenyl)-5-(pyridin-2-yl)-1,3-oxazol-2-yl]-5-methylpyridin-2-yl}acetamide]
21 | 82 | CC(=O)Nc1cc(-c2nc(N3CCCC(N(C)C)C3)c(-c3nnc[nH]3)o2)c(C)cn1 (stereo not drawn) [Compound I-79, N-(4-{4-[3-(dimethylamino)piperidin-1-yl]-5-(4H-1,2,4-triazol-3-yl)-1,3-oxazol-2-yl}-5-methylpyridin-2-yl)acetamide]
22 | 92 | CC(=O)Nc1cc(-c2cc(C(=O)NCCC(C)C)c(-c3ccccc3Cl)o2)c(C)cn1 [Compound I-80, 5-(2-acetamido-5-methylpyridin-4-yl)-2-(2-chlorophenyl)-N-(3-methylbutyl)-3-furamide]
23 | 112 | CCNC(=O)c1cc(-c2cc(NC(C)=O)ncc2C)oc1-c1ccccc1Cl [Compound I-81, 5-(2-acetamido-5-methylpyridin-4-yl)-2-(2-chlorophenyl)-N-ethyl-3-furamide]
24 | 68 | CC(=O)Nc1cc(-c2nc(C(=O)NCCc3cn4ccccc4n3)c(-c3ccccc3Cl)o2)c(C)cn1 [Compound I-82, 2-(2-acetamido-5-methylpyridin-4-yl)-5-(2-chlorophenyl)-N-[2-(imidazo[1,2-a]pyridin-2-yl)ethyl]-1,3-oxazole-4-carboxamide]
25 | 130 | CC(=O)Nc1cc(-c2cc(C(N)=O)c(-c3ccccc3Cl)o2)c(C)cn1 [Compound I-83, 5-(2-acetamido-5-methylpyridin-4-yl)-2-(2-chlorophenyl)-3-furamide]
26 | 54 | CC(=O)Nc1cc(-c2cc(C(=O)NCCCN3CCCC3)c(-c3ccccc3Cl)o2)c(C)cn1 [Compound I-84, 5-(2-acetamido-5-methylpyridin-4-yl)-2-(2-chlorophenyl)-N-[3-(pyrrolidin-1-yl)propyl]-3-furamide]
27 | 56 | CC(=O)Nc1cc(-c2cc(C(=O)NCc3ccc(N(C)C)cc3)c(-c3ccccc3Cl)o2)c(C)cn1 [Compound I-85, 5-(2-acetamido-5-methylpyridin-4-yl)-2-(2-chlorophenyl)-N-[4-(dimethylamino)benzyl]-3-furamide]
28 | 117 | Cc1cnc(NC(=O)C2CC2)cc1-c1nc(C(N)=O)c(-c2ccccc2Cl)o1 [Compound I-86, 5-(2-chlorophenyl)-2-{2-[(cyclopropylcarbonyl)amino]-5-methylpyridin-4-yl}-1,3-oxazole-4-carboxamide]
29 | 109 | COCC(=O)Nc1cc(-c2nc(-c3nnc[nH]3)c(-c3ccccc3Cl)o2)ccn1 [Compound I-87, N-{4-[5-(2-chlorophenyl)-4-(4H-1,2,4-triazol-3-yl)-1,3-oxazol-2-yl]pyridin-2-yl}-2-methoxyacetamide]
30 | 114 | CC(=O)Nc1cc(-c2cc(C(=O)NCc3ccco3)c(-c3ccccc3Cl)o2)c(C)cn1 [Compound I-88, 5-(2-acetamido-5-methylpyridin-4-yl)-2-(2-chlorophenyl)-N-(2-furylmethyl)-3-furamide]
